This note sets out measurements from US10220024B2, “Method of inhibiting cancer cell, method for detecting cancer cell, and system for detecting cancer cell” (CANON KABUSHIKI KAISHA, priority 2012, dated 2019).

Like-named read-outs stand apart in the source and are kept apart here.

One series concerns K562 ALDH (−) cells. Description: Cancer stem-cell selective staining, fluorescent microscopy, ALDH (−) cells. In kind it is cell-based, Human. The conditions noted are these: cells cultured for 24 hours in Experimental Example 16 (1 μg/mL). On the procedure: (§1) The cells cultured for 24 hours in Experimental Example 16 were subjected to nuclear staining with Hoechest33342 (manufactured by Dojindo Laboratories) and a fluorescent image observed under AXIOVERT200M inverted fluorescent microscope (manufactured by Carl Zeiss) was photographed.

Series [1] concerns K562 ALDH (+) fraction (cancer stem cells). As to the kind of experiment: Cancer stem-cell selective inhibitory action against chronic myelocytic leukemia cells, ALDH (+) fraction, CellTiter-Glo. Format: cell-based. The conditions noted are these: Homo sapiens, 24 hours; for activity at 0.05 µg/mL: 0.05 μg/mL; for activity at 0.5 µg/mL: 0.5 μg/mL; for activity at 1 µg/mL: 1 μg/mL. The essentials: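 ALDEFLUOR-sorted K562 fractions, ALDH (+) with ≥80% stem cells and ALDH (−), cultured 24 h at 37° C. with compound at the stated final concentrations. Viable cells counted by CellTiter-Glo luminescence. Growth is expressed relative to 0.1% DMSO control […], and scored as ALDH (+) and ALDH (+)/ALDH (−) categories.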
(In general: ATP-based viability assays read luminescence as a measure of living cells.)

A short description of series [2]: Measurement of fluorescent property of compound (spectrofluorometer). The conditions noted are these: 5 μM DMSO solution. In kind it is physicochemical. On the procedure: The excitation wavelength and fluorescence wavelength of the compound were measured by a FL4500 spectrofluorometric measuring machine manufactured by Hitachi High-Technologies Corporation.
In a further series the test system is K562 ALDH (+) cells. Description: Cancer stem-cell selective staining, fluorescent microscopy, ALDH (+) cells. In kind it is cell-based, Human. On the procedure: as §1
Series [3] concerns Prostatic cancer cells, PC-3. As to the kind of experiment: Cancer cell inhibitory (growth suppressive) action against prostatic cancer cells, CellTiter-Glo viable cell count. In kind it is cell-based. The conditions noted are these: PC-3, 10 μg/mL, 24 hours. On the procedure: Prostatic cancer cells, PC-3, were pre-cultured in RPMI1640 medium containing 10% FBS at 37° C. in a 5% CO2 ambient. Thereafter, 4,000 cells were seeded per well of a 96-well plate and further cultured for 24 hours. Subsequently, Compound (11) was added to the medium so as to obtain a final concentration of 10 μg/mL and cultured at 37° C. for 24 hours in a 5% CO2 ambient. The cultured cells were analyzed for viable cell count according to CellTiter-Glo Luminescent Cell Viability Assay (manufactured by Promega KK.). As a reference, the number of cells cultured in a medium containing a 0.1% dimethylsulfoxide solution (hereinafter, simply referred to as DMSO) in place of a medium containing Compound (11), in the aforementioned operation, was used as 100.
Viable cell count was analyzed in the same manner as in Experimental Example 8 except that the compounds shown in Table 3 were used in place of Compound (11) of Experimental Example 8.
Viable cell count was analyzed in the same manner as in Experimental Example 8 except that comparative compounds 1 to 4 were used in place of Compound (11) of Experimental Example 8.
The growth rate in Examples herein is a numerical value of the number of cells obtained after culture relative to the number of cells (regarded as 100) grown in a medium containing 0.1% DMSO.
Evaluation of cancer cell inhibition against the prostatic cancer cells (PC-3) was made as follows. • A: Cancer cell growth rate is less than 20% (cancer cell inhibitory (growth suppressive) effect is extremely high) • B: Cancer cell growth rate is 20% or more and less than 50% (cancer cell inhibitory (growth suppressive) effect is high) • C: Cancer cell growth rate is 50% or more (cancer cell inhibitory (growth suppressive) effect is low)

[4] abbreviates: read-out: Growth suppression evaluated.
The mark [5] stands for this setting: relative to 0.1% DMSO, read-out: ALDH(+) (growth rate).

Turning to `COc1ccc(N2c3ccc(/C=C/C4=[N+](C)c5ccccc5C4(C)C)cc3C3CCCC32)cc1` (stereo not shown) [Compound 11], the “ALDH(−) (ratio of ALDH (−) cells stained)” value in the series on K562 ALDH (−) cells is given as 48.5%. Further, in series [1] (setting [4]), the activity at 0.05 µg/mL is 50 to 95%, the activity at 0.5 µg/mL was below 50% and the activity at 1 µg/mL is below 50%. For the same compound, in series [1] (setting [5]), the activity at 0.05 µg/mL was determined as 65%, the activity at 0.5 µg/mL is 32% and the activity at 1 µg/mL is 12%. In series [2], this compound yielded an Excitation wavelength λex of 614 nm and a Fluorescence wavelength λem of 669 nm. For the same compound, the “Selective staining of cancer stem cells” value in the series with K562 ALDH (+) cells (ALDH (+) versus ALDH (−) K562 cells) is given as “selectively stained”. In addition, in the series on K562 ALDH (+) cells (cells cultured for 24 hours in Experimental Example 16 (1 μg/mL)), the “ALDH(+) (ratio of ALDH (+) cells stained)” value is listed as 76.7%. Further, the activity at 10 µg/mL in series [3] (read-out: Evaluation (cancer cell growth rate)) is below 20%. Also, the activity at 10 µg/mL in series [3] (relative to 0.1% DMSO (100), read-out: Cancer cell growth rate (%)) worked out at 6.7%.
